The nature of data set [1]: Selective index, ratio of ratio of CC50 for cytotoxicity against green monkey Vero 76 cells to EC50 for antiviral activity against CHIKV S27 in green monkey Vero 76 cells assessed as reduction. The format is toxicity, cell-based. As to conditions: read-out: Selectivity Index.
Data set [2] has as its system Chikungunya virus. Put plainly: Antiviral activity against CHIKV S27 in green monkey Vero 76 cells assessed as reduction in virus-induced cytopathic effect. Type of data set: functional, organism-based. As to conditions: S27, Vero 76.
Data set [3] is described as follows: Cytotoxicity against green monkey Vero 76 cells assessed as reduction in cell viability. The note with it: chlorocebus sabaeus. Type of data set: toxicity, cell-based.
Data set [4] has as its target Polyprotein P1234 (Chikungunya virus (strain S27-African prototype) (CHIKV)) (UniProt Q8JUX6).
The nature of data set [5]: Metabolic stability in human liver microsomes assessed as intrinsic clearance by HPLC-MS/MS analysis. The format is ADME, Microsome.
The target in data set [6] is Polyprotein P1234 (Chikungunya virus (strain S27-African prototype) (CHIKV)) (UniProt Q8JUX6). The note with it: dose 0.27-600 µM.
The target is the same in data set [7]. As to conditions: dose 0.27-600 µM, time 2000-8000 sec.
The test system of data set [8] is Chikungunya virus. Put plainly: Antiviral activity against CHIKV S27 in green monkey Vero 76 cells assessed as reduction in virus yield measured after 3 days by Virus yield reduction assay. The format is functional. The note with it: S27, Vero 76, 72 h, time 3 day.
Data set [9] can be described thus: Metabolic stability in CD-1 mouse liver microsomes assessed as half life by HPLC-MS/MS analysis. Type of data set: ADME, Microsome.
Data set [10] in a line: Metabolic stability in human liver S9 fraction assessed as intrinsic clearance by HPLC-MS/MS analysis. Type of data set: ADME, subcellular.
Data set [11] is described as follows: Metabolic stability in human liver S9 fraction assessed as half life by HPLC-MS/MS analysis. Type of data set: ADME, subcellular.
The subject of data set [12] is Chikungunya virus. Put plainly: Antiviral activity against CHIKV infected in C57BL/6 mouse assessed as mouse survival at 300 mg/kg/day, ip measured after 6 days post infection after 4 hrs of last treatment. Type of data set: functional, organism-based. The note with it: time 6.0 day.
For data set [13], the system named is Chikungunya virus. Kind of data set: Antiviral activity against CHIKV infected in C57BL/6 mouse model assessed as virus titers at 100 mg/kg/day, ip measured after 6 days post infection presence of compound (reference value: 5.3+/0.3). Type of data set: functional. The note with it: time 6 day.
Data set [14] concerns Chikungunya virus. Kind of data set: Antiviral activity against CHIKV infected in C57BL/6 mouse assessed as footpad swelling at 300 mg/kg/day, ip measured after 6 days post infection presence of compound (reference value: 40.9+/-12.4). The format is functional. The note with it: time 6 day.

Results on 14 molecules are retold here after ChEMBL document CHEMBL6071156 (Eur J Med Chem, 2024).

Activity calls are given as the source filed them. The rule behind the calls is not given here. Where only a bound is given, the exact number is not on record here.

Chain of Polyprotein P1234 (Chikungunya virus (strain S27-African prototype) (CHIKV)) (Q8JUX6 whole entry): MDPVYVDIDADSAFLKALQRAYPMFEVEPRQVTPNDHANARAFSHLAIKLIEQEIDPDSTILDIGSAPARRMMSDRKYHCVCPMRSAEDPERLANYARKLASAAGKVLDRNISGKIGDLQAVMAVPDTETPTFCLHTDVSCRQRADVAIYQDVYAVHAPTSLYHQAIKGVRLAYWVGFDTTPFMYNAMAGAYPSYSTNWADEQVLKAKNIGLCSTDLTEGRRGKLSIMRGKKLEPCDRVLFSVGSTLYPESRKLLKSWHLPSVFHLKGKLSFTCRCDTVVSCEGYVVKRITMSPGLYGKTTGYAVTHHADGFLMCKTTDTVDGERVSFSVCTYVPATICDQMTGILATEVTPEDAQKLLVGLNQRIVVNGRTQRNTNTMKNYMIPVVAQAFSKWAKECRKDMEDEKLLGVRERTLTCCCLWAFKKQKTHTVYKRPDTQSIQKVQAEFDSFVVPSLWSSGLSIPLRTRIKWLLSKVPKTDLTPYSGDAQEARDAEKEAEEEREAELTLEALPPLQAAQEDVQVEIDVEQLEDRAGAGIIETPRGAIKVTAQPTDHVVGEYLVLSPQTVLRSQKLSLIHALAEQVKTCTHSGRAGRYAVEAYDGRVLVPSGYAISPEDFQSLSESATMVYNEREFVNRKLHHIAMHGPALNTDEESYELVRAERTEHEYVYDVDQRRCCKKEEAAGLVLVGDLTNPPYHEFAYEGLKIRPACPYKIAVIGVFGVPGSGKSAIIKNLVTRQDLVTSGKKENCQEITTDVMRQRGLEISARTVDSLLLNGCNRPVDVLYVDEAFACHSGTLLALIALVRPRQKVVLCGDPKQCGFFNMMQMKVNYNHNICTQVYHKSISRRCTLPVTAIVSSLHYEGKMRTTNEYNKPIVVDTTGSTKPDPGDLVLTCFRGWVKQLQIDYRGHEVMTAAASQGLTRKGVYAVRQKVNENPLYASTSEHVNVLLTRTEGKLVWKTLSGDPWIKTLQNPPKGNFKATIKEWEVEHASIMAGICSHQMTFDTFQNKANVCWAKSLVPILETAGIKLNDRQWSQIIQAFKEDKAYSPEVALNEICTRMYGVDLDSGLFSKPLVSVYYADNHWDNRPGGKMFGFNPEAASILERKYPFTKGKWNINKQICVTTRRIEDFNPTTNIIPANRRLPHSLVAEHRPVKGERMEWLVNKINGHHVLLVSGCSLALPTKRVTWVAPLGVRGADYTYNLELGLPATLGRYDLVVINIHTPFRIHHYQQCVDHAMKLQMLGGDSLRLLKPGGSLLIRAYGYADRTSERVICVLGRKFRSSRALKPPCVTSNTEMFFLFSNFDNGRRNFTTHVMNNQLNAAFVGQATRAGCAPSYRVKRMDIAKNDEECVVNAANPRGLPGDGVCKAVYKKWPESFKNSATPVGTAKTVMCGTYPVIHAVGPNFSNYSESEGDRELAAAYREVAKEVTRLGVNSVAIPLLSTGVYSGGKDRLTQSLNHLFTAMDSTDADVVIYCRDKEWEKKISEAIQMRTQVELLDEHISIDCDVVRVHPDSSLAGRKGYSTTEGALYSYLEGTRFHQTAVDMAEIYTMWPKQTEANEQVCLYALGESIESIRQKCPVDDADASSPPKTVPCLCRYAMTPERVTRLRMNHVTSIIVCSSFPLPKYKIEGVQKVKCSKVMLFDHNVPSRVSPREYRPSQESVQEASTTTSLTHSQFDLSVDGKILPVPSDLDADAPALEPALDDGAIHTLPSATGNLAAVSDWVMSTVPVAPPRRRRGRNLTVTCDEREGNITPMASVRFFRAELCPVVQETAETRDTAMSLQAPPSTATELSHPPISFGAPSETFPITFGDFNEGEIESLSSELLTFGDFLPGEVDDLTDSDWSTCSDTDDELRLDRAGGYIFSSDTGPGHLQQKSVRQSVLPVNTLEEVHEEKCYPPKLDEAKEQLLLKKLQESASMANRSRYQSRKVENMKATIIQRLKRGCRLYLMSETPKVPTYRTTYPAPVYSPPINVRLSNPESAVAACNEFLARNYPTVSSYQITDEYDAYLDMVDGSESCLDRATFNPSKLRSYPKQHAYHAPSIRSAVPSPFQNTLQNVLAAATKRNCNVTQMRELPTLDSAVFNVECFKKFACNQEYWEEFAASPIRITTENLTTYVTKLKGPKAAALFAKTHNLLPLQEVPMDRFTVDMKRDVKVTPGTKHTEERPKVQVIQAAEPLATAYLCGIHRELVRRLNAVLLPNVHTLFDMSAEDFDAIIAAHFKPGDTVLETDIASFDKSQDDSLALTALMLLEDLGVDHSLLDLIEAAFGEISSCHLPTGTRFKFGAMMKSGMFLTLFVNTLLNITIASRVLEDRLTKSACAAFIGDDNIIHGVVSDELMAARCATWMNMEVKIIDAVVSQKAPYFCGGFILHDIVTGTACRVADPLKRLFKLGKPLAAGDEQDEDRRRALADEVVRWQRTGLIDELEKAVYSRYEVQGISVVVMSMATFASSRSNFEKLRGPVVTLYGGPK

Regarding `CC1=CC(C)(C)Nc2c(C(=O)N[C@@H](C)/C=C/S(C)(=O)=O)cccc21`, the selectivity ratio in [1] was greater than 11. Besides, in data set [2], the concentration for a half-maximal effect (EC50) came to 4.4 µM. Further, in data set [3], the 50% cytotoxic concentration (CC50) is greater than 50 µM.

With `CC1CCc2cccc(C(=O)NC/C=C/S(C)(=O)=O)c2N1` (stereo not given), in [4], the Ratio (10^-6 microM/s) turned out to be 35.8. For the same molecule, in data set [1], the selectivity ratio was greater than 220. In addition, the CLH is less than 57.8 µL/min/mg in data set [5] and less than 19.3 µL/min/mg in data set [10]. Further, the EC50 in data set [2] came out at 0.23 µM. The inhibition entry in data set [6] was “Dose-Dependent Effect”. In addition, in [7], the TDI result was “Active”. Besides, in data set [8], the concentration for an effect of 90% (EC90) was found to be 1.5 µM. The t1/2 was 1.356 h in data set [9] and greater than 2 h in data set [11]. Further, the CC50 in [3] was greater than 50 µM.

Consider `COC(=O)/C=C/CNC(=O)c1cc(C)cc2c1NC(C)(C)C=C2C`, for which, in data set [2], the EC50 was greater than 43 µM. For the same molecule, the cytotoxic concentration (CC50) in [3] is greater than 43 µM.

Turning to `CS(=O)(=O)/C=C/[C@H](Cc1ccccc1)NC(=O)c1cccc2cccnc12`, in data set [2], the EC50 was greater than 50 µM. The 50% cytotoxic concentration (CC50) in [3] is greater than 50 µM.

`NC(=O)c1nc(F)cnc1O`: in [12], the Survival entry is “Active”. In addition, the Activity came to 5.1 in data set [13] and 32.6% in data set [14].

In the case of `COC(=O)/C=C/CNC(=O)c1c[nH]c2ccc(Br)cc12`, in [2], the EC50 was found to be 3.1 µM. Further, the cytotoxic concentration (CC50) in data set [3] came out at 16 µM.

Turning to `CC1CC(C)(C)Nc2c(C(=O)NC/C=C/S(C)(=O)=O)cccc21` (stereo not given), the selectivity ratio in data set [1] was greater than 2. Further, in [2], the half-maximal effective concentration (EC50) was 25 µM. Besides, in data set [3], the CC50 was greater than 50 µM.

On to `COC(=O)/C=C/CNC(=O)c1ccccc1Nc1ccccc1`, for which the EC50 in [2] is greater than 38 µM. In addition, the CC50 in [3] came to 38 µM.

Consider `COC(=O)/C=C/CNC(=O)c1cccc2c1NC(C)(C)C=C2C`, for which the concentration giving a half-maximal response (EC50) in data set [2] was greater than 22 µM. Moreover, in data set [3], the CC50 is greater than 22 µM.

On to `COC(=O)/C=C/CNC(=O)c1cccc2ccc(C)nc12`, for which, in data set [2], the EC50 is greater than 34 µM. Besides, in data set [3], the half-maximal cytotoxic concentration (CC50) worked out at 34 µM.

Take `COC(=O)CCCNC(=O)c1cccc2c1NC(C)(C)CC2C` (stereo not given): the EC50 in data set [2] was greater than 50 µM. Also, the cytotoxic concentration (CC50) in [3] is greater than 50 µM.

As to `COC(=O)/C=C/CNC(=O)c1cccc2c1NCCC2`, the EC50 in [2] is greater than 50 µM. Moreover, the CC50 in data set [3] is greater than 50 µM.

Turning to `CC1=CC(C)(C)Nc2c(C(=O)NC/C=C/S(C)(=O)=O)cccc21`, the EC50 in data set [2] came out at 23 µM. The CC50 in data set [3] was found to be 39 µM.

Regarding `COC(=O)/C=C/CNC(=O)c1cccc2cccnc12`, the EC50 in data set [2] was greater than 50 µM. Besides, the cytotoxic concentration (CC50) in data set [3] is greater than 50 µM.
